Source: patent US20070037870A1, “Novel substance having alpha-glucosidase inhibiting activity and food containing the same” (MORISHITA JINTAN CO., LTD., priority 2003, published 2007)

Tests used:
α-glucosidase (sucrase) = target: T1, α-glucosidase (sucrase) (Rattus norvegicus, UniProt P23739); assay: Measurement of sucrase (α-glucosidase) inhibiting activity with crude enzyme from rat intestinal acetone powder; format: biochemical; conditions: for IC50: crude rat intestinal enzyme, sucrose substrate, 0.1 M maleate buffer pH 6.0, 37° C., 30 minutes; for α-glucosidase inhibiting activity (in words): summary of Table 1 results
T1 construct: The resulting supernatant was separated as a crude enzyme stock solution; tissue SIGMA; host or cells: rat intestine (acetone powder)
T1 sequence (P23739 whole entry): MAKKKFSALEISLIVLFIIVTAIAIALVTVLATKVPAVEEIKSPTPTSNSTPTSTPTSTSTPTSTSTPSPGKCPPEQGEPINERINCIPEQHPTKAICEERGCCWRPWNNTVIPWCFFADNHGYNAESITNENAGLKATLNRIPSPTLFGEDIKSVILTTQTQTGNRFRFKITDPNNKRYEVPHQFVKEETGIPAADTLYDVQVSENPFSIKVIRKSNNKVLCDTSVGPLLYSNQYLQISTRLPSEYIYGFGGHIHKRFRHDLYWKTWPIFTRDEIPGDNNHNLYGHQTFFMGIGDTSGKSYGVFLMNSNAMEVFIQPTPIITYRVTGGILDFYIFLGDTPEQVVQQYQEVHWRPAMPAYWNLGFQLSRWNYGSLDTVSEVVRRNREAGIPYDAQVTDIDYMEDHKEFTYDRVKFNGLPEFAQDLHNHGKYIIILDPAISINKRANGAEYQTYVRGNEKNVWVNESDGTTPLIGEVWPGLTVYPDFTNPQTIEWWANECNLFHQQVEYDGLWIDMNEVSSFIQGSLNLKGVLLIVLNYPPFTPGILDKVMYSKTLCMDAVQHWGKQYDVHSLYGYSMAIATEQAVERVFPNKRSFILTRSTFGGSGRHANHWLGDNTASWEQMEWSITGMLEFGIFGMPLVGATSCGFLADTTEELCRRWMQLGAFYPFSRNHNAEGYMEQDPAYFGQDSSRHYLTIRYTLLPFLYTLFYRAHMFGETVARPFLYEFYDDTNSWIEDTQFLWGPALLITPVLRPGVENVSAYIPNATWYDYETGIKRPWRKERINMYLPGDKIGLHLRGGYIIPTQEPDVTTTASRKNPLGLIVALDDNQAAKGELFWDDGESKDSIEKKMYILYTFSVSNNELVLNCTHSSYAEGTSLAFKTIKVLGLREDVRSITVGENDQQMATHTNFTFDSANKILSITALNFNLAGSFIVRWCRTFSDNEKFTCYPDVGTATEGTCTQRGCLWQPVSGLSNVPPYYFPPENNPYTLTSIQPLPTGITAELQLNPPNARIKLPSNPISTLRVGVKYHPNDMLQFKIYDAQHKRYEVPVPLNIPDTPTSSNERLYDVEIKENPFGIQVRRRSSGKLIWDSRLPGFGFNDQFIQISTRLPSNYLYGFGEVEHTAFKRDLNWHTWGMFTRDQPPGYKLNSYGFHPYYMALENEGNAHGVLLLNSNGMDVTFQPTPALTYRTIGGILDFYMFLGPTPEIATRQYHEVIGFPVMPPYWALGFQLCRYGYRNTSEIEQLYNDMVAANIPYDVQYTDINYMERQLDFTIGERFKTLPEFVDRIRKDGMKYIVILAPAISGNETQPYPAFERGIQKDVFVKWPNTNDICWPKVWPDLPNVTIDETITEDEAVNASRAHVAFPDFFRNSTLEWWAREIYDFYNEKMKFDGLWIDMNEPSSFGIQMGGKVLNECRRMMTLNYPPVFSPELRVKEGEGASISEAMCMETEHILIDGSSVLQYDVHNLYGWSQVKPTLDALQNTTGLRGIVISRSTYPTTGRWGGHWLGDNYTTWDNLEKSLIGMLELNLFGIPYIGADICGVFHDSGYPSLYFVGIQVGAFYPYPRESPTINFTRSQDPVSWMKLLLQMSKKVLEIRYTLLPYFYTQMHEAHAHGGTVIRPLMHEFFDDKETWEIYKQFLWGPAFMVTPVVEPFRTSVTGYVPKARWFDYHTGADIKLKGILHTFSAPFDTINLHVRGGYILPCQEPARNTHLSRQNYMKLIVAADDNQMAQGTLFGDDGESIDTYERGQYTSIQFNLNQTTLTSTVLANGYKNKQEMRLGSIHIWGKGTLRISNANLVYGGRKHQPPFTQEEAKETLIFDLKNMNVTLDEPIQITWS
Procedure: One gram intestinal acetone powder rat (manufactured by SIGMA) was suspended in 10 mL of 0.1 M maleate buffer, pH 6.0 and then centrifuged (3,000 rpm, 4° C., 20 min.). The resulting supernatant was separated as a crude enzyme stock solution. This crude enzyme stock solution was diluted at the degree of dilution previously determined in the following control test, to prepare a crude enzyme dilution which was then used in the subsequent measurement of sucrase inhibiting activity.
A buffer solution 50 μL and 100 μL of 74 mM aqueous sucrose solution were pipetted into each test tube and pre-heated for 3 minutes in a water bath at 37° C. A diluted crude enzyme stock solution 50 μL was added to this test tube and reacted at 37° C. for 30 minutes. After the reaction was finished, 800 μL purified water was added. The mixture was further heated at 80° C. for 3 minutes thereby inactivating the enzyme to terminate the reaction. The concentration of glucose in the reaction solution was quantified by using a commercial kit/mutarotase-glucose oxidase method (Glucose CII Test Wako, manufactured by Wako Pure Chemical Industries, Ltd.).
As the test substance, the reticulanol of the present invention, and Salacinol and kotalanol for comparison, all of which were obtained in Preparative Example 2 above, were used. A solution […] of the test substance in 0.1 M maleate buffer, pH 6.0 was introduced into each test tube (concentration of the test substance: 3 to 30 μg/mL), and 100 μL of 74 mM aqueous sucrose was pipetted into each test tube and pre-heated for 3 minutes in a water bath at 37° C. The above crude enzyme dilution 50 μL was added to each test tube and reacted at 37° C. for 30 minutes. After the reaction was finished, 800 μL purified water was added to each test tube, and the mixture was further heated at 80° C. for 3 minutes thereby inactivating the enzyme to terminate the reaction.
After the reaction was terminated, the concentration of glucose in the reaction solution was quantified by using the glucose CII Test Wako (manufactured by Wako Pure Chemical Industries, Ltd.).
An aqueous sucrose solution 100 μL was mixed with 50 μL of each test substance dissolved in a maleate buffer. Purified water 800 μL was added thereto and then 50 μL crude enzyme dilution was added thereto, and immediately the mixture was heated to […] to inactivate the enzyme. Thereafter, the concentration of glucose in the reaction solution was measured by the same method as described above.
Sucrase inhibiting activity was calculated from the following equation: Sucrase inhibiting activity (%)={(Glc0−Glcx)/Glc0}×100 wherein Glcx is a value obtained by subtracting the glucose concentration in the corresponding blank test from the concentration of glucose in the test sample, and Glc0 is the glucose concentration in the corresponding control.
An inhibition curve was prepared by plotting the inhibiting activity (%) calculated by the above equation on the ordinate and the concentration of each test substance (μg/mL) on the abscissa. From this inhibition curve, 50% inhibition concentration (IC50 value) was calculated as an indicator of sucrase inhibiting activity.

α-glucosidase = conditions: compared with marketed synthetic medicine Glucobay; cited from earlier work

Structure (SMILES)	IC50 (α-glucosidase (sucrase)) [µM]	α-glucosidase inhibiting activity (in words) (α-glucosidase (sucrase))	α-glucosidase inhibiting activity compared with Glucobay (α-glucosidase)	α-glucosidase inhibiting activity relative to Salacinol (α-glucosidase (sucrase); compared with Salacinol)
O=S(=O)([O-])O[C@H](CO)[C@@H](O)C[S+]1C[C@H](O)[C@@H](O)[C@@H]1CO (stereo partly drawn) [Salacinol]	2.42	very strong α-glucosidase inhibiting activity	almost equivalent	
O=S(=O)([O-])OC(C(O)C[S+]1CC(O)C(O)C1CO)C(O)C(O)CO (stereo not drawn) [Reticulanol, reticulanol]	0.963	very strong α-glucosidase inhibiting activity		at least twice as high
O=S(=O)([O-])OC(C(O)C[S+]1CC(O)C(O)C1CO)C(O)C(O)C(O)CO (stereo not drawn) [Kotalanol, kotalanol]	0.424	very strong α-glucosidase inhibiting activity	almost equivalent	
